Biological target: T1, Full length (FL) 3-Phosphoglycerate Dehydrogenase (PHGDH) (Homo sapiens, UniProt O43175)
T1 construct: Full length (FL) 3-Phosphoglycerate Dehydrogenase (PHGDH) Diaphorase coupled assay (500 uM NAD)
T1 sequence (O43175 1-533): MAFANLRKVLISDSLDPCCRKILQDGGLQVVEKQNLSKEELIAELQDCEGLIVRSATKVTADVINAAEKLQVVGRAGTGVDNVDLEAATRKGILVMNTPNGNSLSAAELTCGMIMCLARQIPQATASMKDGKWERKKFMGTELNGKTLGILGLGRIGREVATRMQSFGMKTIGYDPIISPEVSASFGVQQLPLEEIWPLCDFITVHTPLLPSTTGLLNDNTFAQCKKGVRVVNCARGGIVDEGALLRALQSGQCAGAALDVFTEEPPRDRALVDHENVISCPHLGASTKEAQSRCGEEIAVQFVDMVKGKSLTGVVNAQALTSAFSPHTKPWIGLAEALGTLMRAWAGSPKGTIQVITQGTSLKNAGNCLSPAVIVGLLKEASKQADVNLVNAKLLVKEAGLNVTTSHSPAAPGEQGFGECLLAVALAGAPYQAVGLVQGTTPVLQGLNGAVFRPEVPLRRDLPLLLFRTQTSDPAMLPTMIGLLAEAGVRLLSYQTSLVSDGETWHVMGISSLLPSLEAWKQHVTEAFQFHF
Assay: Full length (FL) PHGDH Diaphorase coupled assay (500 uM NAD)
Type: biochemical
Details: full-length PHGDH 5 nM, 30° C. 60 minutes, resorufin fluorescence
Procedure: Full length (FL) 3-Phosphoglycerate Dehydrogenase (PHGDH) Diaphorase coupled assay (500 uM NAD)
PHGDH activity was determined by detecting the NADH produced during the reaction. Diaphorase was used to catalyze the oxidation of NADH with the concomitant reduction of resazurin to the fluorescent product resorufin. Resorufin fluorescence quantitatively reflected the production of NADH by the PHGDH reaction. To drive the forward reaction, two enzymes in the serine synthesis pathway subsequent to PHGDH, Phosphoserine aminotransferase (PSAT1) and phosphoserine phosphatase (PSPH) were also added to the reaction.
Briefly, serial dilution of compounds were incubated in a volume of 20 μL in 384 well plates with the assay mixture containing 5 nM PHGDH, 500 nM PSAT1, 500 nM PSPH, 500 μM NAD^+, 80 uM 3-phosphoglycerate, 1 mM glutamate, 57 uM Resazurin and 0.2 mg/ml Diaphorase in assay buffer containing 50 mM Trisethanoloamine (TEA) pH8.0, 10 mM MgCl2, 0.01% Tween-20 and 0.05% Bovine Serum Albumin (BSA). The plate was then incubated at 30° C. for 60 minutes and resorufin fluorescence was measured at emission wavelength 598 nm following excitation at 525 nm. The positive control consisted of the complete reaction mixture with 4% DMSO and was set to 0% inhibition.

| Structure (SMILES) | IC50 |
| --- | --- |
| COc1ccc2c(cc(C(=O)NC3(c4ccc(C(C)(C)C(=O)O)cc4)CCOC3)n2C)c1Cl (racemic) [I-77 e63] | 1 to 1000 nM |
| COc1ccc2c(cc(C(=O)NC3(c4ccc(CC(=O)O)cc4)CCOC3)n2C)c1Cl (racemic) [I-78 e40] | 1 to 1000 nM |
| Cn1c(C(=O)NC2(c3ccc(C(=O)O)cc3)CCOC2)cc2c(Cl)c(Cl)c(OCC3COC3)cc21 (racemic) [I-80 e103] | 1 to 1000 nM |
| Cn1c(C(=O)NC2(c3ccc(C(=O)O)cc3)CCOC2)cc2c(Cl)c(Cl)c(OCc3ncc[nH]3)cc21 (racemic) [I-81 e105] | 1 to 1000 nM |
| Cn1c(C(=O)NC2(c3ccc(C(C)(C)C(=O)O)cc3)CCOC2)cc2c(Cl)c(Cl)ccc21 (racemic) [I-87 e37] | 1 to 1000 nM |
| CCc1cc(C2(NC(=O)c3cc4c(Cl)c(Cl)ccc4n3C)CCOC2)ccc1C(=O)O (racemic) [I-88 e156, (±)-4-[3-[(4,5-Dichloro-1-methyl-indole-2-carbonyl)amino]tetrahydro-furan-3-yl]-2-ethyl-benzoic acid] | 1000 to 5000 nM |
| Cn1c(C(=O)NC2(c3ccc(C(=O)O)cc3)CCOC2)cc2c(Cl)c(Cl)c(OCC3CCOC3)cc21 (racemic) [I-92 e101] | 1 to 1000 nM |
| CN1CC(COc2cc3c(cc(C(=O)NC4(c5ccc(C(=O)O)cc5)CCOC4)n3C)c(Cl)c2Cl)OC1=O (racemic) [I-93 e106] | 1 to 1000 nM |
| Cn1c(C(=O)NC2(c3ccc(C(=O)O)cc3)CCOC2)cc2c(Cl)c(Cl)c(OCC3CCCO3)cc21 (racemic) [I-94 e98] | 1 to 1000 nM |
| Cn1c(C(=O)NC2(c3ccc(C(=O)O)cc3)CCOC2)cc2c(Cl)cc(OCC3CNC(=O)O3)cc21 (racemic) [I-95 e96] | 1000 to 5000 nM |
| Cn1c(C(=O)NC2(c3ccc(C(=O)O)cc3)CCOC2)cc2c(Cl)c(C3CC3)ccc21 (racemic) [I-96 e36] | 1 to 1000 nM |
| CN(C)CCOc1cc2c(cc(C(=O)NC3(c4ccc(C(=O)O)cc4)CCOC3)n2C)c(Cl)c1Cl (racemic) [I-97 e102] | 1 to 1000 nM |
| Cc1cc(C2(NC(=O)c3cc4c(Cl)c(Cl)ccc4n3C)CCOC2)ccc1C(=O)O (racemic) [I-98 e155, (±)-4-[3-[(4,5-Dichloro-1-methyl-indole-2-carbonyl)amino]tetrahydro-furan-3-yl]-2-methyl-benzoic acid] | 1 to 1000 nM |
| Cc1cc(C(=O)O)ccc1C1(NC(=O)c2cc3c(Cl)c(Cl)ccc3n2C)CCOC1 (racemic) [I-99 e89] | 1 to 1000 nM |
| COCCOc1cc2c(cc(C(=O)NC3(c4ccc(C(=O)O)cc4)CCOC3)n2C)c(Cl)c1Cl (racemic) [I-100 e99] | 1 to 1000 nM |
| Cn1c(C(=O)NC2(c3ccc(C(=O)O)c(C4CC4)c3)CCOC2)cc2c(Cl)c(Cl)ccc21 (racemic) [I-101 e157, (±)-2-cyclopropyl-4-[3-[(4,5-dichloro-1-methyl-indole-2-carbonyl)amino]-tetrahydrofuran-3-yl]benzoic acid] | 1000 to 5000 nM |
| CN1CC(COc2cc3c(cc(C(=O)NC4(c5ccc(C(=O)O)cc5)CCOC4)n3C)c(Cl)c2Cl)CC1=O (racemic) [I-102 e100] | 1 to 1000 nM |
| CCOc1cc2c(cc(C(=O)NC3(c4ccc(C(=O)O)cc4)CCOC3)n2C)c(Cl)c1Cl (racemic) [I-104 e97] | 1 to 1000 nM |
| CC(C(=O)O)c1ccc(C2(NC(=O)c3cc4c(Cl)c(Cl)ccc4n3C)CCOC2)cc1 (racemic) [I-105 e152, (±)-2-[4-[3-[(4,5-dichloro-1-methyl-indole-2-carbonyl)amino]tetrahydrofuran-3-yl]phenyl]propanoic acid] | 1 to 1000 nM |
| Cn1c(C(=O)NC2(c3ccc(C(=O)O)cc3)CCOC2)cc2c(Cl)c(F)ccc21 (racemic) [I-106 e31] | 1000 to 5000 nM |
| Cn1c(C(=O)NC2(c3ccc(C(=O)O)cc3Cl)CCOC2)cc2c(Cl)c(Cl)ccc21 (racemic) [I-107 e24] | 1 to 1000 nM |

| Structure (SMILES) | IC50 |
| --- | --- |
| CC(=O)N1CCC(NC(=O)c2cc3c(Cl)c(Cl)ccc3n2C)(c2ccc(C(=O)O)cc2)C1 (racemic) [I-110 e20] | 1 to 1000 nM |
| Cn1c(C(=O)NC2(c3ccc(C(=O)O)cc3)CCOC2)cc2c(Cl)c(Cl)c(OCC3CNC(=O)O3)cc21 (racemic) [I-111 e95] | 1 to 1000 nM |
| Cn1c(C(=O)NC2(c3ccc(C(=O)O)cc3)CCOC2)cc2c(Cl)c3c(cc21)OCCO3 (racemic) [I-113 e35] | 1 to 1000 nM |
| COc1cc(Cl)c2cc(C(=O)NC3(c4ccc(C(=O)O)cc4)CCOC3)n(C)c2c1 (racemic) [I-114 e34] | 1000 to 5000 nM |
| COc1cc2c(cc(C(=O)NC3(c4ccc(C(=O)O)cc4)CCOC3)n2C)c(Cl)c1Cl (racemic) [I-115 e33] | 1 to 1000 nM |
| Cc1ccc2c(cc(C(=O)NC3(c4ccc(C(=O)O)cc4)CCOC3)n2C)c1Cl (racemic) [I-116 e32] | 1 to 1000 nM |
| Cn1c(C(=O)NC2(c3ccc(C(=O)O)cc3)CCOC2)cc2c(Cl)cccc21 (racemic) [I-117 e30] | 1000 to 5000 nM |
| Cn1c(C(=O)NC2(c3ccc(C(=O)O)cc3F)CCOC2)cc2c(Cl)c(Cl)ccc21 (racemic) [I-118 e29] | 1 to 1000 nM |
| Cn1c(C(=O)NC2(c3cccc(CC(=O)O)c3)CCOC2)cc2c(Cl)c(Cl)ccc21 (racemic) [I-119 e153, (±)-2-[3-[3-[(4,5-Dichloro-1-methyl-indole-2-carbonyl)amino]tetrahydrofuran-3-yl]phenyl]acetic acid] | 1 to 1000 nM |
| Cn1c(C(=O)NC2(c3ccc(C(=O)O)c(C#N)c3)CCOC2)cc2c(Cl)c(Cl)ccc21 (racemic) [I-120 e154, (±)-2-Cyano-4-(3-(4,5-dichloro-1-methyl-1H-indole-2-carboxamido)tetrahydrofuran-3-yl)benzoic acid] | 1 to 1000 nM |
| Cn1c(C(=O)NC2(c3ccc(C(=O)O)cc3)CCN(c3ccccc3)C2)cc2c(Cl)c(Cl)ccc21 (racemic) [I-121 e21] | 1000 to 5000 nM |
| COc1ccc2c(cc(C(=O)NC3(c4ccc(C(=O)O)cc4)CCOC3)n2C)c1Cl (racemic) [I-122 e26] | 1 to 1000 nM |
| Cn1c(C(=O)NC2(c3ccc(C(=O)O)cc3)CCCOC2)cc2c(Cl)c(Cl)ccc21 (racemic) [I-123 e23] | 1 to 1000 nM |
| Cn1c(C(=O)NC2(c3ccc(C(=O)O)cc3)CCN(CC(F)(F)F)C2)cc2c(Cl)c(Cl)ccc21 (racemic) [I-125 e19] | 1000 to 5000 nM |
| CCN1CCC(NC(=O)c2cc3c(Cl)c(Cl)ccc3n2C)(c2ccc(C(=O)O)cc2)C1 (racemic) [I-126 e18] | 5000 to 10000 nM |
| COc1ccc2c(cc(C(=O)NC3(c4ccc(C(C(=O)O)C5CCCCC5)cc4)COC3)n2C)c1Cl (racemic) [I-156 e119] | 1 to 1000 nM |
| COc1ccc2c(cc(C(=O)NC3(c4ccc(C(C(=O)O)C5CCNCC5)cc4)COC3)n2C)c1Cl (racemic) [I-159 e121] | 1 to 1000 nM |
| COc1ccc2c(cc(C(=O)NC3(c4ccc(C(C(=O)O)C5CCC(O)CC5)cc4)COC3)n2C)c1Cl (racemic) [I-160 e138, (±)-2-[4-[3-[(4-Chloro-5-methoxy-1-methyl-indole-2-carbonyl)amino]oxetan-3-yl]phenyl]-2-(4-hydroxycyclohexyl)acetic acid] | 1 to 1000 nM |
| COc1cc2c(cc(C(=O)NC3(c4ccc(C(C(=O)O)C5CC5)cc4)CCOC3)n2C)c(Cl)c1Cl (racemic) [I-163 e163, (±)-2-Cyclopropyl-2-(4-(3-(4,5-dichloro-6-methoxy-1-methyl-1H-indole-2-carboxamido)tetrahydrofuran-3-yl)phenyl)acetic acid] | 1 to 1000 nM |
| C[C@@H](C(=O)O)c1ccc(C2(NC(=O)c3cc4c(Cl)c(Cl)ccc4n3C)COC2)cc1 (single isomer, unassigned) [I-34 or I-35 e161 peak 2] | 1 to 1000 nM |

Source: US11634412B2, “3-phosphoglycerate dehydrogenase inhibitors and uses thereof” (Raze Therapeutics, Inc., priority 2016, dated 2023)
